In PubChem BioAssay (NCI):
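Dose response: 5 concentrations. Exposure: 48 h. Format: 96-well plates. Endpoint: linear interpolation; highest concentration if not reached. TGI marks complete inhibition of growth.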

Tests used:
Experiment in all cases: DTP human tumour cell line panel, 48 h
HCC-2998 colon = test system: HCC-2998 colon
NCI/ADR-RES ovarian = test system: NCI/ADR-RES ovarian
NCI-H226 lung = test system: NCI-H226 lung
MOLT-4 leukemia = test system: MOLT-4 leukemia
786-0 renal = test system: 786-0 renal
NCI-H23 lung = test system: NCI-H23 lung
RXF 393 renal = test system: RXF 393 renal
IGROV1 ovarian = test system: IGROV1 ovarian
OVCAR-3 ovarian = test system: OVCAR-3 ovarian
U251 CNS = test system: U251 CNS

SMILES | TGI (HCC-2998 colon) [µM] | TGI (NCI/ADR-RES ovarian) [µM] | TGI (NCI-H226 lung) [µM] | TGI (MOLT-4 leukemia) [µM] | TGI (786-0 renal) [µM] | TGI (NCI-H23 lung) [µM] | TGI (RXF 393 renal) [µM] | TGI (IGROV1 ovarian) [µM] | TGI (OVCAR-3 ovarian) [µM] | TGI (U251 CNS) [µM]
O=C(O)C(SC1=NNC2(C(=O)N1)c1ccccc1-c1ccccc12)SC1=NNC2(C(=O)N1)c1ccccc1-c1ccccc12 | > 10 | > 10 | > 10 | > 10 | > 10 | > 10 | > 10 | > 10 | > 10 | > 10
CCCCn1cnc2c(c(CC#N)nn2-c2ccccc2)c1=N | > 100 | > 100 | > 100 | > 100 | > 100 | > 100 | > 100 | > 100 | > 100 | > 100
O=C(Cc1ccccc1)NN1C(=O)/C(=C\c2ccccc2)SC1=Nc1ccccc1 | > 100 | > 100 | > 100 | > 100 | > 100 | > 100 | > 100 | > 100 | > 100 | > 100
CC(=O)O[C@H]1C(=O)[C@@]2(C)[C@H]([C@H](OC(=O)c3ccc(F)cc3)[C@]3(O)C[C@H](OC(=O)[C@H](O)[C@@H](NC(=O)c4ccccc4)c4ccccc4)C(C)=C1C3(C)C)[C@]1(OC(C)=O)CO[C@@H]1C[C@@H]2O | 0.174 | > 25 | > 25 | 2.6 | > 25 | > 25 | 0.902 | > 25 | 0.0437 | 0.738
CSc1c(C#N)c(N)n(-c2ccc(C)cc2)c(=O)c1C#N | > 100 | > 100 | > 100 | > 100 | > 100 | > 100 | > 100 | > 100 | > 100 | > 100
CC1(C)C2CC(=O)C1(C)C(O)C2Br (centres undefined) | > 100 | > 100 | > 100 | > 100 | > 100 | > 100 | > 100 | > 100 | > 100 | > 100
O=C(NCCCN(CCCCN(CCCNC(=O)C(F)(F)F)Cc1ccc2ccccc2c1)Cc1ccc2ccccc2c1)C(F)(F)F | 2.93 | > 100 | > 100 | > 100 | > 100 |  | > 100 | > 100 | > 100 | > 100
Cc1cc2c([N+](=O)[O-])cc3c(c2o1)C(=O)C=CC3=O | > 57.8 | 65.1 | > 75.1 | 2.94 | 3.59 | 34.9 | 3.54 | 26.6 | 19 | 33.1
Cc1ccc(OCCn2cc(Nc3ccccc3)c(=O)n(CCOc3ccc(C)cc3)c2=O)cc1 | > 100 | > 100 | > 100 | > 100 | > 100 | > 100 | > 100 | > 100 | > 100 | > 100
COC(=O)CCc1cc(OC)c2c(c1)[C@H](C(=O)OC)[C@@H](c1ccc(O)c(OC)c1)O2 | 50.5 | > 100 | > 100 | > 100 | > 100 | > 100 | > 100 | > 100 | > 100 | > 100
O=C(Oc1cc(=O)c(OC(=O)c2ccccc2)co1)c1ccccc1 | > 100 | > 100 | > 100 | > 100 | > 100 | > 100 | > 100 | > 100 | > 100 | > 100
CNc1ncnc2c1cnn2COCC(O)CO (centres undefined) | > 100 | > 100 | > 100 | > 100 | > 100 | > 100 | > 100 | > 100 | > 100 | > 100
Nc1nc(Cl)cc(NCC2(CO)CCC(CCc3ccccc3)C2)n1 (centres undefined) | 33.8 | 51.2 | 36.1 | 11.7 | 31.9 | 25.1 | 29.9 | 37 | 28.9 | 31.1
O=C1NCC(NC(=O)C(F)(F)F)c2c(Br)sc(Br)c21 (centres undefined) | > 100 | > 100 | > 100 | > 100 | > 100 | > 100 | > 100 | > 100 | > 100 | > 100
COc1cc(-c2cc(=O)c3cc4c(=O)cc(-c5cc(OC)c(OC)c(OC)c5)oc4cc3o2)cc(OC)c1OC | > 100 | > 100 | 46.2 | > 100 | 39 | > 67.8 | 26.4 | > 79.1 | > 100 | 23.4
C[C@@H](Cl)[C@H]1CCCN(Cc2ccc(Br)cc2)C1 | > 12.5 | > 12.5 | > 12.5 | > 12.5 | > 12.5 | > 12.5 | > 12.5 | > 12.5 | > 12.5 | > 12.5
CC(=O)c1cccn1/C=C(\OC(=O)OC(C)(C)C)c1ccc[nH]1 | > 100 | > 100 | > 100 | > 100 | > 100 | > 100 | > 100 | > 100 | > 100 | > 100
COC(=O)c1cc2c(cc1CC1Cc3cc4c(cc3C1)CCC4)CCC2 | 70 | > 100 | > 100 | 36.9 | > 100 | > 100 | > 100 | > 100 | > 100 | > 100
